Results on 37 compounds are retold here after PubChem BioAssay AID588645 (Sanford-Burnham Center for Chemical Genomics, 2011).

Activity calls are given as the source filed them. How the calls were made is not given here.

Broadly, the IC50 is the point on the concentration scale where inhibition reaches its midpoint.

In this assay the target is Intestinal-type alkaline phosphatase (Homo sapiens) (UniProt P09923). As to the kind of experiment: human IAP enzyme inhibitors, SAR follow-up, mouse IAP inhibitor project, biochemical, set 2 (AID 588645). The note with it: human intestinal alkaline phosphatase enzymatic inhibition assay.
Intestinal-type alkaline phosphatase (Homo sapiens), sequence (P09923 whole entry, looked up): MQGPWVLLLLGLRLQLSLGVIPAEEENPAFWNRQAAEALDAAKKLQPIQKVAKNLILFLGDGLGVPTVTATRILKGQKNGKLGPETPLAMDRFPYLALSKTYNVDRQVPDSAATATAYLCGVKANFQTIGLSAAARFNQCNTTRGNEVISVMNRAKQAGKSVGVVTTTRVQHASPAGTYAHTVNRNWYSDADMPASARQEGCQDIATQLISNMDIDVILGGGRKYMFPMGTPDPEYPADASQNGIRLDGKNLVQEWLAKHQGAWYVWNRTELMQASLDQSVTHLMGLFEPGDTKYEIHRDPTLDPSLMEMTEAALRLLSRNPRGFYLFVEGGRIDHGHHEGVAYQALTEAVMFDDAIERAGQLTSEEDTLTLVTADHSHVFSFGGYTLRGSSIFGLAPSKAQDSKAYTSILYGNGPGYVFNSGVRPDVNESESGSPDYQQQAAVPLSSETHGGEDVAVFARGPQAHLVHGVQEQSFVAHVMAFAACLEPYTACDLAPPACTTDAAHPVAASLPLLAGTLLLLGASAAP
For the compound `O=C(N/N=C/c1ccccc1F)c1ccc(O)cc1O`, the IC50 was > 100 µM (inactive). `COc1cccc(CNS(=O)(=O)c2ccc3[nH]c(=O)oc3c2)c1`: the IC50 was > 100 µM (inactive). Take `COc1ccc(NC(=O)CCCNS(=O)(=O)c2ccc3[nH]c(=O)oc3c2)c(OC)c1`: the IC50 was > 100 µM (inactive). As for `Cc1ccc(C)c(NS(=O)(=O)c2ccc3[nH]c(=O)oc3c2)c1`, the IC50 was > 100 µM (inactive). As to `N#Cc1ccc(NS(=O)(=O)c2ccc3[nH]c(=O)oc3c2)cc1`, the IC50 was > 100 µM (inactive). For `O=C(CCS(=O)(=O)Nc1ccc2[nH]c(=O)oc2c1)NCc1cccc(F)c1`, the IC50 was > 100 µM (inactive).

`Cc1ccc(CNC(=O)C2CCCN(S(=O)(=O)c3ccc4[nH]c(=O)oc4c3)C2)cc1` (configuration not stated): the IC50 is > 100 µM (inactive). Next, `COc1ccc(OC)c(NC(=O)CCNS(=O)(=O)c2ccc3c(c2)oc(=O)n3C)c1`: > 100 µM (inactive); `COc1ccc(NS(=O)(=O)c2ccc3[nH]c(=O)oc3c2)cc1OC`: > 100 µM (inactive). For the compound `Cc1ccccc1CNC(=O)CCCNS(=O)(=O)c1ccc2[nH]c(=O)oc2c1`, the IC50 is > 100 µM (inactive). Turning to `COc1ccc(CNS(=O)(=O)c2ccc3[nH]c(=O)oc3c2)cc1`, the IC50 is > 100 µM (inactive). On to `O=C(CCS(=O)(=O)Nc1ccc2[nH]c(=O)oc2c1)NCc1cccc(Cl)c1`, for which the IC50 was > 100 µM (inactive). On to `CC(C)Oc1ccc(CNC(=O)C2CCCN(S(=O)(=O)c3ccc4[nH]c(=O)oc4c3)C2)cc1` (configuration not stated), for which the IC50 is > 100 µM (inactive).

For `CC(=NNC(=O)c1ccccc1OCCOc1ccccc1)c1ccccc1F`, the IC50 is > 100 µM (inactive). Turning to `COc1ccc(CNC(=O)C2CCCN(S(=O)(=O)c3ccc4[nH]c(=O)oc4c3)C2)cc1` (configuration not stated), the IC50 is > 100 µM (inactive). As to `O=C(CCNS(=O)(=O)c1ccc2[nH]c(=O)oc2c1)NCc1cccc(Cl)c1`, the IC50 is > 100 µM (inactive). In the case of `CSc1cccc(NC(=O)CCNS(=O)(=O)c2ccc3c(c2)oc(=O)n3C)c1`, the IC50 is > 100 µM (inactive).

For the compound `Cc1ccc(CNC(=O)CCNS(=O)(=O)c2ccc3[nH]c(=O)oc3c2)cc1`, the IC50 is > 100 µM (inactive). On to `CCOc1cc(C(=O)N/N=C/c2ccccc2F)cc(OCC)c1OCC`, for which the IC50 was > 100 µM (inactive). Consider `O=C(N/N=C/c1ccc(Br)cc1F)c1cc(O)ccc1O`, for which the IC50 was > 100 µM (inactive).

As to `O=c1[nH]c2ccc(S(=O)(=O)Nc3ccc4c(c3)OCO4)cc2o1`, the IC50 is > 100 µM (inactive). Take `COc1ccc(/C=N/NC(=O)c2cc(O)c(O)c(O)c2)c(OC)c1`: the IC50 was > 100 µM (inactive). As for `O=C(N/N=C/c1ccc(F)cc1F)c1ccc(O)cc1`, the IC50 is > 100 µM (inactive). For `O=C(CCNS(=O)(=O)c1ccc2[nH]c(=O)oc2c1)NCc1ccc(F)cc1`, the IC50 was > 100 µM (inactive). On to `O=C(CCCNS(=O)(=O)c1ccc2[nH]c(=O)oc2c1)NCc1ccccc1Cl`, for which the IC50 was > 100 µM (inactive). Regarding `O=C(CCNS(=O)(=O)c1ccc2[nH]c(=O)oc2c1)NCc1ccccc1`, the IC50 is > 100 µM (inactive). With `O=C(CCNS(=O)(=O)c1ccc2[nH]c(=O)oc2c1)NCc1ccccc1F`, the IC50 is > 100 µM (inactive). Take `O=C(CCNS(=O)(=O)c1ccc2ccccc2c1)NCCc1ccc2c(c1)OCO2`: the IC50 was > 100 µM (inactive).

Turning to `O=C(NCc1ccc2c(c1)OCO2)C1CCCN(S(=O)(=O)c2ccc3[nH]c(=O)oc3c2)C1` (configuration not stated), the IC50 was > 100 µM (inactive). With `Cc1ccc(C)c(NC(=O)C2CCCN(S(=O)(=O)c3ccc4c(c3)oc(=O)n4C)C2)c1` (configuration not stated), the IC50 is > 100 µM (inactive). To `O=C(N/N=C/c1ccc(Cl)c(Cl)c1)c1cc(O)c(O)c(O)c1` belongs > 100 µM (inactive).

Regarding `O=C(N/N=C/c1cc(Br)ccc1F)c1ccc(O)cc1`, the IC50 was > 100 µM (inactive). To `O=C(CCNS(=O)(=O)c1ccc2[nH]c(=O)oc2c1)NCc1ccc2c(c1)OCO2` belongs > 100 µM (inactive).

In the case of `O=C(N/N=C/c1ccccc1F)c1ccc(O)cc1`, the IC50 was > 100 µM (inactive). As for `COc1ccc(NC(=O)CCNS(=O)(=O)c2ccc3[nH]c(=O)oc3c2)cc1OC`, the IC50 is > 100 µM (inactive). Turning to `COc1cccc(C(=O)N/N=C/c2ccccc2F)c1`, the IC50 was > 100 µM (inactive). As to `COc1ccc(CCNC(=O)CCCNS(=O)(=O)c2ccc3[nH]c(=O)oc3c2)cc1OC`, the IC50 is > 100 µM (inactive).
